From US6355799B1, “Substituted benzene compounds, process for their preparation, and herbicidal and defoliant compositions containing them” (ISK Americas Incorporated, priority 1997, dated 2002)

Legend:
Type in all cases: in vivo
[1] = system: upland rice (Oryza sp., var. Tebonnet, RICE); experiment: Post-emerge test, crop safety; settings: post-emerge; for RICE phytotoxicity rating (crop damage): 14 days after application, rating scale 0-100; for Post-emerge Herbicidal Activity RICE: crop damage rating 0-100 at 14 days after application
Summary of the method: (§1)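 Compounds in acetone were track-sprayed at 187 l/ha, 15–1000 g ai/ha, onto sandy loam pots. Pre-emerge seeds were sown one day before spraying, with surface watering afterwards. Post-emerge plants were at the 2–3 leaf stage and sprayed with 0.25% v/v non-ionic surfactant. Injury was rated 0–100 at 14 days.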

[2] = system: field corn (Zea mays L., var. Dekalb 535, CORN); experiment: Post-emerge test, crop safety; settings: post-emerge; for CORN phytotoxicity rating (crop damage): 14 days after application, rating scale 0-100; for Post-emerge Herbicidal Activity CORN: crop damage rating 0-100 at 14 days after application
Summary of the method: as §1

[3] = system: barnyardgrass (Echinochloa crus-galli, ECHCG); experiment: Pre-emerge test, greenhouse herbicide activity screening; settings: pre-emerge; for phytotoxicity rating ECHCG: 14 days after application, scale 0-100; for Pre-emerge Herbicidal Activity ECHCG: phytotoxicity rating 0-100 at 14 days after application
Summary of the method: as §1

[4] = system: velvetleaf (Abutilon theophrasti, ABUTH); experiment: as above; settings: pre-emerge; for phytotoxicity rating ABUTH: 14 days after application, scale 0-100; for Pre-emerge Herbicidal Activity ABUTH: phytotoxicity rating 0-100 at 14 days after application
Summary of the method: as §1

[5] = system: large crabgrass (Digitaria sanguinalis, DIGSA); experiment: as above; settings: pre-emerge; for phytotoxicity rating DIGSA: 14 days after application, scale 0-100; for Pre-emerge Herbicidal Activity DIGSA: phytotoxicity rating 0-100 at 14 days after application
Summary of the method: as §1

[6] = system: sicklepod (Cassia obtusifolia, CASOB); experiment: as above; settings: pre-emerge; for phytotoxicity rating CASOB: 14 days after application, scale 0-100; for Pre-emerge Herbicidal Activity CASOB: phytotoxicity rating 0-100 at 14 days after application
Summary of the method: as §1

[7] = system: ivyleaf morningglory (Ipomoea hederacea, IPOHE); experiment: as above; settings: pre-emerge; for phytotoxicity rating IPOHE: 14 days after application, scale 0-100; for Pre-emerge Herbicidal Activity IPOHE: phytotoxicity rating 0-100 at 14 days after application
Summary of the method: as §1

[8] = system: green foxtail (Setaria viridis, SETVI); experiment: as above; settings: pre-emerge; for phytotoxicity rating SETVI: 14 days after application, scale 0-100; for Pre-emerge Herbicidal Activity SETVI: phytotoxicity rating 0-100 at 14 days after application
Summary of the method: as §1

[9] = system: lambsquarters (Chenopodium album, CHEAL); experiment: as above; settings: pre-emerge; for phytotoxicity rating CHEAL: 14 days after application, scale 0-100; for Pre-emerge Herbicidal Activity CHEAL: phytotoxicity rating 0-100 at 14 days after application
Summary of the method: as §1

[10] = system: redroot pigweed (Amaranthus retroflexus, AMARE); experiment: as above; settings: pre-emerge; for phytotoxicity rating AMARE: 14 days after application, scale 0-100; for Pre-emerge Herbicidal Activity AMARE: phytotoxicity rating 0-100 at 14 days after application
Summary of the method: as §1

[11] = system: upland rice (Oryza sp., var. Tebonnet, RICE); experiment: Pre-emerge test, crop safety; settings: pre-emerge; for phytotoxicity rating RICE (crop damage): 14 days after application, scale 0-100; for Pre-emerge Herbicidal Activity RICE: crop damage, phytotoxicity rating 0-100 at 14 days after application
Summary of the method: (§2)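 Herbicidal damage is scored 0 (none) to 100 (complete plant death) two weeks after a simulated field spray. Rates span 15–1000 g ai/ha, delivered in acetone at 187 l/ha. For post-emergence treatments, plants have 2–3 leaves and the spray carries 0.25% v/v non-ionic surfactant.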

[12] = system: field corn (Zea mays L., var. Dekalb 535, CORN); experiment: Pre-emerge test, crop safety; settings: pre-emerge; for phytotoxicity rating CORN (crop damage): 14 days after application, scale 0-100; for Pre-emerge Herbicidal Activity CORN: crop damage, phytotoxicity rating 0-100 at 14 days after application
Summary of the method: as §2

[13] = system: redroot pigweed (Amaranthus retroflexus, AMARE); experiment: Post-emerge test, greenhouse herbicide activity screening; settings: post-emerge; for AMARE phytotoxicity rating: 14 days after application, rating scale 0-100; for Post-emerge Herbicidal Activity AMARE: phytotoxicity rating 0-100 at 14 days after application
Summary of the method: (§3)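 Applied at 15–1000 g ai/ha from acetone in 187 l/ha spray volume. Post-emergence applications included 0.25% v/v non-ionic surfactant and reached plants sown 8–21 days before. Pre-emergence applications were incorporated by surface watering. Efficacy or crop damage was rated on a 0–100 scale after 14 days.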

[14] = system: barnyardgrass (Echinochloa crus-galli, ECHCG); experiment: as above; settings: post-emerge; for ECHCG phytotoxicity rating: 14 days after application, rating scale 0-100; for Post-emerge Herbicidal Activity ECHCG: phytotoxicity rating 0-100 at 14 days after application
Summary of the method: as §3

[15] = system: johnsongrass (Sorghum halepense, SORHA); experiment: as above; settings: post-emerge; for SORHA phytotoxicity rating: 14 days after application, rating scale 0-100; for Post-emerge Herbicidal Activity SORHA: phytotoxicity rating 0-100 at 14 days after application
Summary of the method: as §3

[16] = system: velvetleaf (Abutilon theophrasti, ABUTH); experiment: as above; settings: post-emerge; for ABUTH phytotoxicity rating: 14 days after application, rating scale 0-100; for Post-emerge Herbicidal Activity ABUTH: phytotoxicity rating 0-100 at 14 days after application
Summary of the method: as §3

[17] = system: large crabgrass (Digitaria sanguinalis, DIGSA); experiment: as above; settings: post-emerge; for DIGSA phytotoxicity rating: 14 days after application, rating scale 0-100; for Post-emerge Herbicidal Activity DIGSA: phytotoxicity rating 0-100 at 14 days after application
Summary of the method: as §3

[18] = system: sicklepod (Cassia obtusifolia, CASOB); experiment: as above; settings: post-emerge; for CASOB phytotoxicity rating: 14 days after application, rating scale 0-100; for Post-emerge Herbicidal Activity CASOB: phytotoxicity rating 0-100 at 14 days after application
Summary of the method: as §3

[19] = system: ivyleaf morningglory (Ipomoea hederacea, IPOHE); experiment: as above; settings: post-emerge; for IPOHE phytotoxicity rating: 14 days after application, rating scale 0-100; for Post-emerge Herbicidal Activity IPOHE: phytotoxicity rating 0-100 at 14 days after application
Summary of the method: as §3

[20] = system: green foxtail (Setaria viridis, SETVI); experiment: as above; settings: post-emerge; for SETVI phytotoxicity rating: 14 days after application, rating scale 0-100; for Post-emerge Herbicidal Activity SETVI: phytotoxicity rating 0-100 at 14 days after application
Summary of the method: as §3

[21] = system: lambsquarters (Chenopodium album, CHEAL); experiment: as above; settings: post-emerge; for CHEAL phytotoxicity rating: 14 days after application, rating scale 0-100; for Post-emerge Herbicidal Activity CHEAL: phytotoxicity rating 0-100 at 14 days after application
Summary of the method: as §3

COc1c(Cl)cc(F)c(-n2c(=O)cc(C(F)(F)F)n(C)c2=O)c1NC(=O)C=Cc1ccccc1[N+](=O)[O-] [2-126]
RICE phytotoxicity rating (crop damage) ([1]; 63 g ai/ha): 0
RICE phytotoxicity rating (crop damage) ([1]; 250 g ai/ha): 50
CORN phytotoxicity rating (crop damage) ([2]; 63 g ai/ha): 10
CORN phytotoxicity rating (crop damage) ([2]; 250 g ai/ha): 10
phytotoxicity rating ECHCG ([3]; 63 g ai/ha): 10
phytotoxicity rating ECHCG ([3]; 250 g ai/ha): 40
phytotoxicity rating ABUTH ([4]; 63 g ai/ha): 100
phytotoxicity rating ABUTH ([4]; 250 g ai/ha): 100
phytotoxicity rating DIGSA ([5]; 63 g ai/ha): 30
phytotoxicity rating DIGSA ([5]; 250 g ai/ha): 90
phytotoxicity rating CASOB ([6]; 63 g ai/ha): 10
phytotoxicity rating CASOB ([6]; 250 g ai/ha): 70
phytotoxicity rating IPOHE ([7]; 63 g ai/ha): 10
phytotoxicity rating IPOHE ([7]; 250 g ai/ha): 90
phytotoxicity rating SETVI ([8]; 63 g ai/ha): 40
phytotoxicity rating SETVI ([8]; 250 g ai/ha): 100
phytotoxicity rating CHEAL ([9]; 63 g ai/ha): 100
phytotoxicity rating CHEAL ([9]; 250 g ai/ha): 100
phytotoxicity rating AMARE ([10]; 63 g ai/ha): 100
phytotoxicity rating AMARE ([10]; 250 g ai/ha): 100
phytotoxicity rating RICE (crop damage) ([11]; 63 g ai/ha): 10
phytotoxicity rating RICE (crop damage) ([11]; 250 g ai/ha): 60
phytotoxicity rating CORN (crop damage) ([12]; 63 g ai/ha): 0
phytotoxicity rating CORN (crop damage) ([12]; 250 g ai/ha): 5
AMARE phytotoxicity rating ([13]; 63 g ai/ha): 80
AMARE phytotoxicity rating ([13]; 250 g ai/ha): 100
ECHCG phytotoxicity rating ([14]; 63 g ai/ha): 0
ECHCG phytotoxicity rating ([14]; 250 g ai/ha): 10
SORHA phytotoxicity rating ([15]; 63 g ai/ha): 0
SORHA phytotoxicity rating ([15]; 250 g ai/ha): 10
ABUTH phytotoxicity rating ([16]; 63 g ai/ha): 90
ABUTH phytotoxicity rating ([16]; 250 g ai/ha): 100
DIGSA phytotoxicity rating ([17]; 63 g ai/ha): 20
DIGSA phytotoxicity rating ([17]; 250 g ai/ha): 30
CASOB phytotoxicity rating ([18]; 63 g ai/ha): 60
CASOB phytotoxicity rating ([18]; 250 g ai/ha): 60
IPOHE phytotoxicity rating ([19]; 63 g ai/ha): 80
IPOHE phytotoxicity rating ([19]; 250 g ai/ha): 100
SETVI phytotoxicity rating ([20]; 63 g ai/ha): 30
SETVI phytotoxicity rating ([20]; 250 g ai/ha): 40
CHEAL phytotoxicity rating ([21]; 63 g ai/ha): 80
CHEAL phytotoxicity rating ([21]; 250 g ai/ha): 95

Cc1nn(-c2c(F)cc(Cl)cc2NC(=O)c2ccc(F)cc2F)c(=O)n1C(F)F [Compound 6-23]
Post-emerge Herbicidal Activity RICE ([1]; 63 g ai/ha): 0
Post-emerge Herbicidal Activity RICE ([1]; 250 g ai/ha): 15
Post-emerge Herbicidal Activity CORN ([2]; 63 g ai/ha): 0
Post-emerge Herbicidal Activity CORN ([2]; 250 g ai/ha): 15
Pre-emerge Herbicidal Activity ECHCG ([3]; rate 63 g ai/ha): 0
Pre-emerge Herbicidal Activity ECHCG ([3]; rate 250 g ai/ha): 0
Pre-emerge Herbicidal Activity ABUTH ([4]; rate 63 g ai/ha): 0
Pre-emerge Herbicidal Activity ABUTH ([4]; rate 250 g ai/ha): 50
Pre-emerge Herbicidal Activity DIGSA ([5]; rate 63 g ai/ha): 0
Pre-emerge Herbicidal Activity DIGSA ([5]; rate 250 g ai/ha): 10
Pre-emerge Herbicidal Activity CASOB ([6]; rate 63 g ai/ha): 0
Pre-emerge Herbicidal Activity CASOB ([6]; rate 250 g ai/ha): 10
Pre-emerge Herbicidal Activity IPOHE ([7]; rate 63 g ai/ha): 0
Pre-emerge Herbicidal Activity IPOHE ([7]; rate 250 g ai/ha): 20
Pre-emerge Herbicidal Activity SETVI ([8]; rate 63 g ai/ha): 0
Pre-emerge Herbicidal Activity SETVI ([8]; rate 250 g ai/ha): 60
Pre-emerge Herbicidal Activity CHEAL ([9]; rate 63 g ai/ha): 30
Pre-emerge Herbicidal Activity CHEAL ([9]; rate 250 g ai/ha): 100
Pre-emerge Herbicidal Activity AMARE ([10]; rate 63 g ai/ha): 50
Pre-emerge Herbicidal Activity AMARE ([10]; rate 250 g ai/ha): 100
Pre-emerge Herbicidal Activity RICE ([11]; rate 63 g ai/ha): 0
Pre-emerge Herbicidal Activity RICE ([11]; rate 250 g ai/ha): 0
Pre-emerge Herbicidal Activity CORN ([12]; rate 63 g ai/ha): 0
Pre-emerge Herbicidal Activity CORN ([12]; rate 250 g ai/ha): 0
Post-emerge Herbicidal Activity AMARE ([13]; 63 g ai/ha): 20
Post-emerge Herbicidal Activity AMARE ([13]; 250 g ai/ha): 85
Post-emerge Herbicidal Activity ECHCG ([14]; 63 g ai/ha): 0
Post-emerge Herbicidal Activity ECHCG ([14]; 250 g ai/ha): 0
Post-emerge Herbicidal Activity SORHA ([15]; 63 g ai/ha): 0
Post-emerge Herbicidal Activity SORHA ([15]; 250 g ai/ha): 0
Post-emerge Herbicidal Activity ABUTH ([16]; 63 g ai/ha): 40
Post-emerge Herbicidal Activity ABUTH ([16]; 250 g ai/ha): 55
Post-emerge Herbicidal Activity DIGSA ([17]; 63 g ai/ha): 0
Post-emerge Herbicidal Activity DIGSA ([17]; 250 g ai/ha): 10
Post-emerge Herbicidal Activity CASOB ([18]; 63 g ai/ha): 0
Post-emerge Herbicidal Activity CASOB ([18]; 250 g ai/ha): 10
Post-emerge Herbicidal Activity IPOHE ([19]; 63 g ai/ha): 10
Post-emerge Herbicidal Activity IPOHE ([19]; 250 g ai/ha): 30
Post-emerge Herbicidal Activity SETVI ([20]; 63 g ai/ha): 0
Post-emerge Herbicidal Activity SETVI ([20]; 250 g ai/ha): 30
Post-emerge Herbicidal Activity CHEAL ([21]; 63 g ai/ha): 20
Post-emerge Herbicidal Activity CHEAL ([21]; 250 g ai/ha): 70
